In patent US11040028B2, “Penicinotam derivative, preparation method and use thereof” (OCEAN UNIVERSITY OF CHINA, priority 2017, dated 2021):

The molecules below were run on BHK-21 cells (assay: Anti-fibrosis activity test: inhibition of BHK-21 cell proliferation (CCK-8)). Conditions: Mesocricetus auratus, BHK-21, 48 h, CCK-8, 48 hours after administration.
Format: cell-based
Summary of the method: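 Read-out: CCK-8 absorbance at 450 nm after 2 h, giving proliferation inhibition (1−Ai/Ao)×100% versus blank control, from which IC50 was derived. Cells had been treated with compounds for 48 h after 24 h adherence at 37° C. Pirfenidone served as positive control.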
In the case of O=C1c2c(n(Cc3ccc([N+](=O)[O-])cc3)c3ccccc3c2=O)-c2cccn21 [Compound 593a, 4-(4-Nitrobenzyl)-9H-pyrrolizino[1,2-b]quinoline-9,10(4H)-dione], the IC50 is reported as 0.05 to 5 mM.
Work on Cn1c2c(c(=O)c3ccc(N4CCNCC4)cc31)C(=O)n1cccc1-2 [Compound 328a, 4-Methyl-6-(piperazin-1-yl)-9H-pyrrolizino[1,2-b]quinoline-9,10(4H)-dione] yielded an IC50 of under 0.05 mM.
With N#Cc1cccc2nc3c(c(OCc4ccc(F)cc4)c12)C(=O)n1cccc1-3 [Compound 462b, 9-((4-fluorobenzyl)oxy)-10-oxo-10H-pyrrolizino[1,2-b]quinoline-8-carbonitrile] the IC50 was 0.05 to 5 mM.
With O=C1c2c(nc3ccccc3c2OCCCN2CCOCC2)-c2cccn21 [Compound 663b, 9-(3-morpholinopropoxy)-10H-pyrrolizino[1,2-b]quinolin-10-one] the IC50 was 0.05 to 5 mM.
In the case of O=C1c2c(nc3ccccc3c2OCc2cccc([N+](=O)[O-])c2)-c2cccn21 [Compound 583b, 9-((3-nitrobenzyl)oxy)-10H-pyrrolizino[1,2-b]quinolin-10-one], the IC50 is reported as 0.05 to 5 mM.

These molecules were tested on human lung fibroblasts HFL1 (assay: Anti-fibrosis activity test: inhibition of proliferation of human lung fibroblasts HFL1 (CCK-8)). Conditions: Homo sapiens, HFL1, 48 h, human lung fibroblasts HFL1, CCK-8, 48 hours.
Format: cell-based
Summary of the method: (§1)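 Cells seeded at 2×10^4 cells/mL, adhered 24 h, then exposed to compound concentrations in triplicate for 48 h at 37° C, 5% CO2. CCK-8 added for 2 h, absorbance at 450 nm; inhibition = (1−Ai/Ao)×100% versus blank control, IC50 calculated.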
With O=C1c2c(n(Cc3ccc([N+](=O)[O-])cc3)c3ccccc3c2=O)-c2cccn21 [Compound 593a, 4-(4-Nitrobenzyl)-9H-pyrrolizino[1,2-b]quinoline-9,10(4H)-dione] the IC50 was 0.05 to 5 mM.
In the case of Cn1c2c(c(=O)c3ccc(N4CCNCC4)cc31)C(=O)n1cccc1-2 [Compound 328a, 4-Methyl-6-(piperazin-1-yl)-9H-pyrrolizino[1,2-b]quinoline-9,10(4H)-dione], the IC50 is reported as 0.05 to 5 mM.
N#Cc1cccc2nc3c(c(OCc4ccc(F)cc4)c12)C(=O)n1cccc1-3 [Compound 462b, 9-((4-fluorobenzyl)oxy)-10-oxo-10H-pyrrolizino[1,2-b]quinoline-8-carbonitrile] gave an IC50 of 0.05 to 5 mM.
In the case of O=C1c2c(nc3ccccc3c2OCCCN2CCOCC2)-c2cccn21 [Compound 663b, 9-(3-morpholinopropoxy)-10H-pyrrolizino[1,2-b]quinolin-10-one], the IC50 is reported as 0.05 to 5 mM.
In the case of O=C1c2c(nc3ccccc3c2OCc2cccc([N+](=O)[O-])c2)-c2cccn21 [Compound 583b, 9-((3-nitrobenzyl)oxy)-10H-pyrrolizino[1,2-b]quinolin-10-one], the IC50 is reported as 0.05 to 5 mM.

What follows are molecules tested on human hepatic stellate cells LX-2 (assay: Anti-fibrosis activity test: inhibition of proliferation of human hepatic stellate cells LX-2 (CCK-8)). Conditions: Homo sapiens, 48 h, human hepatic stellate cells LX-2, CCK-8, 48 hours.
Format: cell-based
Summary of the method: as §1
In the case of O=C1c2c(n(Cc3ccc([N+](=O)[O-])cc3)c3ccccc3c2=O)-c2cccn21 [Compound 593a, 4-(4-Nitrobenzyl)-9H-pyrrolizino[1,2-b]quinoline-9,10(4H)-dione], the IC50 is reported as 0.05 to 5 mM.
Cn1c2c(c(=O)c3ccc(N4CCNCC4)cc31)C(=O)n1cccc1-2 [Compound 328a, 4-Methyl-6-(piperazin-1-yl)-9H-pyrrolizino[1,2-b]quinoline-9,10(4H)-dione] showed an IC50 of 0.05 to 5 mM.
Work on N#Cc1cccc2nc3c(c(OCc4ccc(F)cc4)c12)C(=O)n1cccc1-3 [Compound 462b, 9-((4-fluorobenzyl)oxy)-10-oxo-10H-pyrrolizino[1,2-b]quinoline-8-carbonitrile] yielded an IC50 of 0.05 to 5 mM.
Work on O=C1c2c(nc3ccccc3c2OCCCN2CCOCC2)-c2cccn21 [Compound 663b, 9-(3-morpholinopropoxy)-10H-pyrrolizino[1,2-b]quinolin-10-one] yielded an IC50 of 0.05 to 5 mM.
O=C1c2c(nc3ccccc3c2OCc2cccc([N+](=O)[O-])c2)-c2cccn21 [Compound 583b, 9-((3-nitrobenzyl)oxy)-10H-pyrrolizino[1,2-b]quinolin-10-one] gave an IC50 of 0.05 to 5 mM.

The molecules below were run on human fibrosarcoma cells HT-1080 (assay: Anti-fibrosis activity test: inhibition of proliferation of human fibrosarcoma cells HT-1080 (CCK-8)). Conditions: Homo sapiens, HT-1080, 48 h, human fibrosarcoma cells HT-1080, CCK-8, 48 hours.
Format: cell-based
Summary of the method: as §1
With O=C1c2c(n(Cc3ccc([N+](=O)[O-])cc3)c3ccccc3c2=O)-c2cccn21 [Compound 593a, 4-(4-Nitrobenzyl)-9H-pyrrolizino[1,2-b]quinoline-9,10(4H)-dione] the IC50 was 0.05 to 5 mM.
Cn1c2c(c(=O)c3ccc(N4CCNCC4)cc31)C(=O)n1cccc1-2 [Compound 328a, 4-Methyl-6-(piperazin-1-yl)-9H-pyrrolizino[1,2-b]quinoline-9,10(4H)-dione] gave an IC50 of 0.05 to 5 mM.
N#Cc1cccc2nc3c(c(OCc4ccc(F)cc4)c12)C(=O)n1cccc1-3 [Compound 462b, 9-((4-fluorobenzyl)oxy)-10-oxo-10H-pyrrolizino[1,2-b]quinoline-8-carbonitrile] was tested, and the IC50 was 0.05 to 5 mM.
For O=C1c2c(nc3ccccc3c2OCCCN2CCOCC2)-c2cccn21 [Compound 663b, 9-(3-morpholinopropoxy)-10H-pyrrolizino[1,2-b]quinolin-10-one], the IC50 was 0.05 to 5 mM.
O=C1c2c(nc3ccccc3c2OCc2cccc([N+](=O)[O-])c2)-c2cccn21 [Compound 583b, 9-((3-nitrobenzyl)oxy)-10H-pyrrolizino[1,2-b]quinolin-10-one] gave an IC50 of 0.05 to 5 mM.

What follows are molecules tested on human dermal fibroblasts CCC-ESF-1 (assay: Anti-fibrosis activity test: inhibition of proliferation of human dermal fibroblasts CCC-ESF-1 (CCK-8)). Conditions: Fibroblast; human dermal fibroblasts CCC-ESF-1, CCK-8, 48 hours.
Format: cell-based
Summary of the method: as §1
With O=C1c2c(n(Cc3ccc([N+](=O)[O-])cc3)c3ccccc3c2=O)-c2cccn21 [Compound 593a, 4-(4-Nitrobenzyl)-9H-pyrrolizino[1,2-b]quinoline-9,10(4H)-dione] the IC50 was 0.05 to 5 mM.
For Cn1c2c(c(=O)c3ccc(N4CCNCC4)cc31)C(=O)n1cccc1-2 [Compound 328a, 4-Methyl-6-(piperazin-1-yl)-9H-pyrrolizino[1,2-b]quinoline-9,10(4H)-dione], the IC50 was 0.05 to 5 mM.
Molecule N#Cc1cccc2nc3c(c(OCc4ccc(F)cc4)c12)C(=O)n1cccc1-3 [Compound 462b, 9-((4-fluorobenzyl)oxy)-10-oxo-10H-pyrrolizino[1,2-b]quinoline-8-carbonitrile] has an IC50 of 0.05 to 5 mM.
Work on O=C1c2c(nc3ccccc3c2OCCCN2CCOCC2)-c2cccn21 [Compound 663b, 9-(3-morpholinopropoxy)-10H-pyrrolizino[1,2-b]quinolin-10-one] yielded an IC50 of 0.05 to 5 mM.
In the case of O=C1c2c(nc3ccccc3c2OCc2cccc([N+](=O)[O-])c2)-c2cccn21 [Compound 583b, 9-((3-nitrobenzyl)oxy)-10H-pyrrolizino[1,2-b]quinolin-10-one], the IC50 is reported as 0.05 to 5 mM.

These molecules were tested on human embryonic lung fibroblast IMR-90 (assay: Anti-fibrosis activity test: inhibition of proliferation of human embryonic lung fibroblast IMR-90 (CCK-8)). Conditions: human embryonic lung fibroblast IMR-90, CCK-8, 48 hours.
Format: cell-based
Summary of the method: as §1
For O=C1c2c(n(Cc3ccc([N+](=O)[O-])cc3)c3ccccc3c2=O)-c2cccn21 [Compound 593a, 4-(4-Nitrobenzyl)-9H-pyrrolizino[1,2-b]quinoline-9,10(4H)-dione], the IC50 was 0.05 to 5 mM.
For Cn1c2c(c(=O)c3ccc(N4CCNCC4)cc31)C(=O)n1cccc1-2 [Compound 328a, 4-Methyl-6-(piperazin-1-yl)-9H-pyrrolizino[1,2-b]quinoline-9,10(4H)-dione], the IC50 was 0.05 to 5 mM.
Work on N#Cc1cccc2nc3c(c(OCc4ccc(F)cc4)c12)C(=O)n1cccc1-3 [Compound 462b, 9-((4-fluorobenzyl)oxy)-10-oxo-10H-pyrrolizino[1,2-b]quinoline-8-carbonitrile] yielded an IC50 of 0.05 to 5 mM.
O=C1c2c(nc3ccccc3c2OCCCN2CCOCC2)-c2cccn21 [Compound 663b, 9-(3-morpholinopropoxy)-10H-pyrrolizino[1,2-b]quinolin-10-one] showed an IC50 of 0.05 to 5 mM.
With O=C1c2c(nc3ccccc3c2OCc2cccc([N+](=O)[O-])c2)-c2cccn21 [Compound 583b, 9-((3-nitrobenzyl)oxy)-10H-pyrrolizino[1,2-b]quinolin-10-one] the IC50 was 0.05 to 5 mM.

The molecules below were run on cardiac fibroblast RAT-iCell-C002 (assay: Anti-fibrosis activity test: inhibition of proliferation of cardiac fibroblast RAT-iCell-C002 (CCK-8)). Conditions: Cardiac fibroblast, 48 h, cardiac fibroblast RAT-iCell-C002, CCK-8, 48 hours.
Format: cell-based
Summary of the method: as §1
For O=C1c2c(n(Cc3ccc([N+](=O)[O-])cc3)c3ccccc3c2=O)-c2cccn21 [Compound 593a, 4-(4-Nitrobenzyl)-9H-pyrrolizino[1,2-b]quinoline-9,10(4H)-dione], the IC50 was 0.05 to 5 mM.
Cn1c2c(c(=O)c3ccc(N4CCNCC4)cc31)C(=O)n1cccc1-2 [Compound 328a, 4-Methyl-6-(piperazin-1-yl)-9H-pyrrolizino[1,2-b]quinoline-9,10(4H)-dione] gave an IC50 of 0.05 to 5 mM.
N#Cc1cccc2nc3c(c(OCc4ccc(F)cc4)c12)C(=O)n1cccc1-3 [Compound 462b, 9-((4-fluorobenzyl)oxy)-10-oxo-10H-pyrrolizino[1,2-b]quinoline-8-carbonitrile] gave an IC50 of 0.05 to 5 mM.
Molecule O=C1c2c(nc3ccccc3c2OCCCN2CCOCC2)-c2cccn21 [Compound 663b, 9-(3-morpholinopropoxy)-10H-pyrrolizino[1,2-b]quinolin-10-one] has an IC50 of 0.05 to 5 mM.
For O=C1c2c(nc3ccccc3c2OCc2cccc([N+](=O)[O-])c2)-c2cccn21 [Compound 583b, 9-((3-nitrobenzyl)oxy)-10H-pyrrolizino[1,2-b]quinolin-10-one], the IC50 was 0.05 to 5 mM.

These molecules were tested on NF-κB (assay: Immunological activity test: inhibition of NF-κB activity). Conditions: initial concentration of 30 μM; a/b isomers given as first/second symbol; read-out: IC50 (μM), inhibitory activity against NF-κB.
Format: cell-based
Summary of the method: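 IC50 values come from further analysis of the data after an initial test at a single 30 μM concentration. Parthenolide served as the reference inhibitor.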
O=C1c2c(n(Cc3ccc([N+](=O)[O-])cc3)c3ccccc3c2=O)-c2cccn21 [Compound 593a, 4-(4-Nitrobenzyl)-9H-pyrrolizino[1,2-b]quinoline-9,10(4H)-dione] gave an IC50 of 0.1 to 1 µM.
With Cn1c2c(c(=O)c3ccc(N4CCNCC4)cc31)C(=O)n1cccc1-2 [Compound 328a, 4-Methyl-6-(piperazin-1-yl)-9H-pyrrolizino[1,2-b]quinoline-9,10(4H)-dione] the IC50 was 0.1 to 1 µM.
N#Cc1cccc2nc3c(c(OCc4ccc(F)cc4)c12)C(=O)n1cccc1-3 [Compound 462b, 9-((4-fluorobenzyl)oxy)-10-oxo-10H-pyrrolizino[1,2-b]quinoline-8-carbonitrile] showed an IC50 of 0.1 to 1 µM.
Molecule O=C1c2c(nc3ccccc3c2OCCCN2CCOCC2)-c2cccn21 [Compound 663b, 9-(3-morpholinopropoxy)-10H-pyrrolizino[1,2-b]quinolin-10-one] has an IC50 of 1 to 10 µM.
O=C1c2c(nc3ccccc3c2OCc2cccc([N+](=O)[O-])c2)-c2cccn21 [Compound 583b, 9-((3-nitrobenzyl)oxy)-10H-pyrrolizino[1,2-b]quinolin-10-one] gave an IC50 of 1 to 10 µM.

What follows are molecules tested on mouse macrophages (RAW264.7) (assay: Lipopolysaccharide-induced NO secretion in macrophages (Griess)). Conditions: Mus musculus, RAW264.7, 24 h, RAW264.7, LPS 1 μg/ml, a/b isomers given as first/second symbol, read-out: IC50 (μM), inhibition of lipopolysaccharide-induced NO secretion in macrophages.
Format: cell-based
Summary of the method: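 RAW264.7 macrophages in DMEM with 10% FBS received test samples at several concentrations and were stimulated with 1 μg/ml LPS for 24 h. NO in the supernatant was measured with the Griess reagent at 548 nm, […].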
O=C1c2c(n(Cc3ccc([N+](=O)[O-])cc3)c3ccccc3c2=O)-c2cccn21 [Compound 593a, 4-(4-Nitrobenzyl)-9H-pyrrolizino[1,2-b]quinoline-9,10(4H)-dione] showed an IC50 of 1 to 10 µM.
Cn1c2c(c(=O)c3ccc(N4CCNCC4)cc31)C(=O)n1cccc1-2 [Compound 328a, 4-Methyl-6-(piperazin-1-yl)-9H-pyrrolizino[1,2-b]quinoline-9,10(4H)-dione] showed an IC50 of 1 to 10 µM.
In the case of N#Cc1cccc2nc3c(c(OCc4ccc(F)cc4)c12)C(=O)n1cccc1-3 [Compound 462b, 9-((4-fluorobenzyl)oxy)-10-oxo-10H-pyrrolizino[1,2-b]quinoline-8-carbonitrile], the IC50 is reported as 1 to 10 µM.
With O=C1c2c(nc3ccccc3c2OCCCN2CCOCC2)-c2cccn21 [Compound 663b, 9-(3-morpholinopropoxy)-10H-pyrrolizino[1,2-b]quinolin-10-one] the IC50 was 0.1 to 1 µM.
O=C1c2c(nc3ccccc3c2OCc2cccc([N+](=O)[O-])c2)-c2cccn21 [Compound 583b, 9-((3-nitrobenzyl)oxy)-10H-pyrrolizino[1,2-b]quinolin-10-one] gave an IC50 of 1 to 10 µM.
